The source of these data is article PMC5449454, “Anti-Double-Stranded DNA IgG Participates in Renal Fibrosis through Suppressing the Suppressor of Cytokine Signaling 1 Signals” (Frontiers in Immunology, 2017).

Where no end group is shown, it is not given here.

Data set [1] has as its system MRL/lpr mice. Conditions: ref [28]; cited from earlier work. The source says:
The JAK2/STAT1 pathway mediates the renal damage in lupus models induced by anti-dsDNA antibodies. […] Moreover, STAT1 deficiency in the lupus-like chronic graft-versus-host disease model led to a prolonged but amplified increase of anti-dsDNA IgG in sera and also higher proteinuria and mortality ([29]). This phenomenon might be du ...

For data set [2], the system named is anti-dsDNA IgG. The experiment in a line: MALDI-TOF MS, catalysis of peptide by anti-dsDNA IgG. Details: species or system murine. The following applies: peptide 2 µg/ml with IgG (molar ratio = 1:5), 37°C, 30 min, triplicate. The method, then: Matrix-assisted laser desorption/ionization–time of flight mass spectrometry was performed for identifying the sequences of peptide fragments. As described previously ([36]), an ABI 4800 Analyzer (AB Science, Foster City, CA, USA) was used for such analysis. The ALW (L-form or D-form) and KIR peptides (2 µg/ml) were mixed with anti-dsDNA IgG or control IgG (molar ratio = 1:5), respectively. The mixtures were incubated at 37°C for 30 min. Then, these samples were diluted in distilled water (1:100) and then mixed with the α-cyano-4-hydroxycinnamic acid matrix at a ratio of 1:1. Samples in triplicate were then loaded to the MALDI target. Mass spectrum was produced on 80 individual spectra of each spot.

The target in data set [3] is T1, KIR peptide (SOCS1) (Mus musculus, UniProt O35716).
T1 construct: The KIR of SOCS1 was synthesized as a 16-mer peptide (2.09 kDa); purchased Sangon Biotech Company (Shanghai, China); host or cells: chemical synthesis
The experiment in a line: Surface plasmon resonance, JAK2 loop peptide over immobilized biotinylated KIR peptide. It counts as binding. Conditions: SPR, JAK2 loop peptide 0–250 nM. The protocol: The Biacore 3000 instrument (Biacore, Piscataway, NJ, USA) was used for the quantitation of binding affinities ([8], [35]). For anti-dsDNA IgG binding to KIR peptide, anti-dsDNA IgG (10 nM in MES buffer) was immobilized on a CM sensor chip (GE Healthcare, Port Washington, NY, USA), and then KIR peptide (0–250 nM in HEPES buffer) was run on chip. For JAK2 loop peptide binding to KIR peptide, the biotinylated KIR peptide (5 nM) was immobilized on streptavidin-coated sensor chip, followed by injection of JAK2 loop peptide (0–250 nM). A simple Langmuir model (A + B ↔ AB) was used for calculating binding kinetics.

In data set [4] the target is T2, biotinylated SOCS1 kinase inhibitory region (KIR) peptide (also: biotinylated (position not given here)).
T2 construct: Captured by its biotin on streptavidin-coated sensor chips and plates; An unbiotinylated KIR peptide was run over the immobilised anti-dsDNA IgG only; also called SOCS1-KIR; biotinylated KIR peptide; source: synthetic peptide (Sangon Biotech Company)
T2 peptide: DTHFRTFRSHSDYRRI
The experiment in a line: ELISA; inhibition ELISA; biotinylated KIR peptide (5 µg/ml) on streptavidin-coated 96-well plates; FITC-labeled JAK2 loop peptide (0.2 µg/ml) pre-incubated with serially diluted anti-dsDNA IgG (0.02 to 20 µg/ml) or control IgG; fluorescein intensity read. The following applies: both partners purified.

The target of data set [5] is T2, biotinylated SOCS1 kinase inhibitory …. The experiment in a line: SPR; Biacore 3000; biotinylated KIR peptide (5 nM) immobilised on a streptavidin-coated sensor chip, JAK2 loop peptide injected at 0-250 nM; simple Langmuir model (A + B ↔ AB). The following applies: both partners purified.

Regarding `N#C/C(=C\c1ccc(O)c(O)c1)C(=O)NCc1ccccc1` [tyrphostin AG490], in data set [1], the “glomerular deposition of anti-dsDNA IgG” value is “decrease”, the “phosphorylation of JAK2” value is recorded as “significantly inhibited”, the “phosphorylation of STAT1” value is reported as “significantly inhibited” and the proteinuria entry is “decrease”. In data set [1], the renal histological lesions entry is listed as “decrease” and the “serum titer of anti-dsDNA IgG” value was “decrease”.

For DTHFRTFRSHSDYRRI [KIR peptide], the “catalysis of KIR peptide by anti-dsDNA IgG” value in data set [2] is listed as “almost catalyzed by anti-dsDNA IgG”.

Take LPQDKEYYKVKEP [JAK2 loop peptide]: the Kd in data set [3] (Biacore 3000, biotinylated KIR peptide (5 nM) immobilized on streptavidin chip, simple Langmuir model) was determined as 0.0446 µM. In addition, the kon in data set [3] (biotinylated KIR peptide immobilized, Langmuir model, read-out: Ka (association rate)) turned out to be 13500 M⁻¹ s⁻¹. In data set [3] (biotinylated KIR peptide immobilized, Langmuir model, read-out: Kd (dissociation rate)), the koff turned out to be 0.000603 s⁻¹.

B1: FITC-labeled JAK2 loop peptide (peptide)
peptide: LPQDKEYYKVKEP
modifications: also: FITC-labeled (position not given here)
notes: loop region of Janus kinase 2 (JAK2), 13-mer; also called FITC–JAK2 loop; FITC (0.39 kDa)–JAK2 loop; source: synthetic peptide (Sangon Biotech Company)
For B1, in data set [4], the binding result is “binds”.

B2: JAK2 loop peptide (peptide)
peptide: LPQDKEYYKVKEP
notes: loop region of Janus kinase 2 (JAK2), 13-mer, 1.64 kDa; the SPR methods name the 'JAK2 loop peptide' without a label; source: synthetic peptide (Sangon Biotech Company)
Regarding B2, in data set [5], the Kd was 0.0446 µM, the koff came to 0.000603 s⁻¹ and the kon was found to be 13500 M⁻¹ s⁻¹.
